Data as given in ChEMBL document CHEMBL1136231, “Synthesis of a novel family of diterpenes and their evaluation as anti-inflammatory agents” (Bioorg Med Chem Lett, 2003).
Converted amounts (≈) assume the structure as drawn. The source made the active and inactive calls. No cut-off for these calls is given here.

Legend:
Format in all cases: functional
[1] = Inhibition of TNF-alpha was tested in HPBMC (Human Peripheral Blood Mononuclear Cells)
[2] = (§1) Cytotoxicity in HPBMC (Human Peripheral Blood Mononuclear Cells); design: concentration or dose not given beside the values
[3] = Inhibition efficacy of TNF-alpha was tested in HPBMC (Human Peripheral Blood Mononuclear Cells); design: concentration or dose not given beside the values
[4] = as §1
[5] = Inhibition of TNF-alpha was tested in HPBMC (Human Peripheral Blood Mononuclear Cells); inactive
Homo sapiens [6] = species on record: Homo sapiens; assay: (§2) Cytotoxicity in HPBMC (Human Peripheral Blood Mononuclear Cells); Not active
Homo sapiens [7] = species on record: Homo sapiens; assay: Inhibition efficacy of TNF-alpha was tested in HPBMC (Human Peripheral Blood Mononuclear Cells); Not active
[8] = Inhibition of TNF-alpha was tested in HPBMC (Human Peripheral Blood Mononuclear Cells); In active
[9] = as §2
[10] = Inhibition of TNF-alpha was tested in HPBMC (Human Peripheral Blood Mononuclear Cells); Inactive

SMILES | IC50 [1] [µg/mL] | IC50 [5] | IC50 [8] | Efficacy [2] [%] | Efficacy [3] [%] | EC50 [4] [µg/mL] | Efficacy (Homo sapiens [6]) | Efficacy (Homo sapiens [7]) | EC50 [9] | IC50 [10]
C=C[C@@]1(C)CCCC2=C1CC[C@@H]1[C@](C)(CO)CCC[C@@]21C | 3.1 (≈ 10.7 µM) |  |  | 99 | 99 | 3.4 (≈ 11.8 µM) |  |  |  | 
C=C[C@@]1(C)CCCC2=C1CC[C@@H]1[C@](C)(C(=O)O)CCC[C@@]21C | 2.8 (≈ 9.26 µM) |  |  | 99 | 98 | 2.2 (≈ 7.27 µM) |  |  |  | 
C=C[C@@]1(C)CC(=O)[C@]2(O)[C@@]3(C)[C@@H](O)CCC(C)(C)[C@@H]3[C@H](O)[C@H](OC(C)=O)[C@@]2(C)O1 [COLFORSIN] |  | Not Active |  |  |  |  | inactive | inactive |  | 
C=C[C@]1(C)CCC=C2[C@H]1CC[C@@H]1[C@](C)(CO)CCC[C@@]21C | 2.2 (≈ 7.63 µM) |  |  | 93 | 99 | 2.3 (≈ 7.97 µM) |  |  |  | 
C=C[C@@]1(C)CCC=C2[C@H]1CC[C@@H]1[C@](C)(CO)CCC[C@@]21C | 2.3 (≈ 7.97 µM) |  |  |  | 38 |  | inactive |  |  | 
C[C@]1(C(=O)O)CCC[C@]2(C)c3cc(O)ccc3CC[C@@H]12 [PODOCARIC ACID] |  |  |  |  |  |  | inactive | inactive |  | Not Active
C=C[C@@]1(C)CCCC2=C1CC[C@@H]1[C@](C)(C(=O)OC)CCC[C@@]21C | 0.6 (≈ 1.9 µM) |  |  |  | 47 |  | inactive |  |  | 

Now from value to compound, other results behind:

IC50 [1] [µg/mL] | IC50 [5] | IC50 [8] | SMILES | Efficacy [2] [%] | Efficacy [3] [%] | EC50 [4] [µg/mL] | Efficacy (Homo sapiens [6]) | Efficacy (Homo sapiens [7]) | EC50 [9] | IC50 [10]
3.7 (≈ 12.2 µM) |  |  | C=C[C@]1(C)CCC=C2[C@H]1CC[C@@H]1[C@](C)(C(=O)O)CCC[C@@]21C | 35 | 86 |  |  |  |  | 
 |  | Not Active | COC(=O)[C@]1(C)CCC[C@@]2(C)C3=CCC[C@](C)(CO)[C@@H]3CC[C@H]12 |  |  |  | inactive | inactive | Not Active | 
1.4 (≈ 4.42 µM) |  |  | C=C[C@]1(C)CCC=C2[C@H]1CC[C@@H]1[C@](C)(C(=O)OC)CCC[C@@]21C | 71 | 99 | 3.1 (≈ 9.8 µM) |  |  |  | 
0.7 (≈ 2.21 µM) |  |  | C=C[C@@]1(C)CCC=C2[C@H]1CC[C@@H]1[C@](C)(C(=O)OC)CCC[C@@]21C | 98 | 99 | 1.8 (≈ 5.69 µM) |  |  |  | 
5.7 (≈ 18.8 µM) |  |  | C=C[C@@]1(C)CCC=C2[C@H]1CC[C@@H]1[C@](C)(C(=O)O)CCC[C@@]21C | 66 | 90 | 7.8 (≈ 25.8 µM) |  |  |  | 
